Measured values from patent US9579376B2 (priority 2009, dated 2017).

Key:
[1] = tested on: CD8+ T cells; assay: IFN-γ ELISpot deconvolution and follow-up ICS to identify single peptide epitopes; type: cell-based, human; conditions: for # SUBJECTS: number of HSV-2 seropositive subjects (55 sampled) with CD8+ T cell response to the peptide, ELISpot and follow-up ICS; for antigenicity for persons with HLA A*0201, A*0202 or other HLA-A2 subtypes: Example 1, T-cells from infected patients
Procedure: ELISPOT technology was used to further identify individual peptides.
High throughput intracellular cytokine staining-flow cytometry (ICS) was used to detect IFN-γ, IL-2, TNF-α expression in CD8+ T cells following 6 h exposure of PBMC with HSV-2 peptides (or control antigen) in the presence of co-stimulatory antibodies (α-CD28/α-CD49d) and Brefeldin A. Cytokine responses to peptide antigen were scored positive if they differed from the negative control (p<0.02; Fisher's one-sided test); this cutoff was defined during trial and error validation studies with HSV-2 seronegative subjects and allows for a 5% false positive error rate. Peptide pools giving positive responses by ICS in HSV-2 seropositive subjects were deconvoluted using IFN-γ ELISpot to identify the causative peptide. Deconvolution cutoff was determined as at least 11 spots per well and 3-fold higher spots than DMSO (negative) control.

[2] = tested on: HSV-2 specific CD8+ T cells; assay: CFSE proliferation of peptide exposed PBMC (cell division index); type: cell-based, human; conditions: CFSE stained PBMC; CDI>2 cut-off for proliferation positivity
From the text: To evaluate the proliferative capacity of HSV-2 specific CD8+ T cells, we utilized CFSE to stain PBMC prior to epitope specific stimulation. […] CD8+ T cells that recognized UL4945-49 did proliferate (CDI=8.7), but CDI values were below threshold for peptides UL4981-96, UL4993-108 and UL49129-143 (respective CDI=1.8, 1.4 and 1.6). Since T cells specific for UL4945-49 are more abundant that those specific for the other epitopes, the ability of these cells to proliferate likely reflects the epitope dominance observed within UL49.

[3] = tested on: HSV-2 specific CD8+ T cells; conditions: one individual with four HLA-B07 restricted UL49 epitopes; versus other tested epitopes
Procedure: Identified single peptides were used to individually stimulate CD8+ T cells in subjects with multiple epitopes. These responses were analyzed by ICS to determine the polyfunctional profiles of HSV-2 specific T cells. Single peptides were also used to assess degranulation; the presence of lytic proteins granzyme B and perforin, in HSV-2 specific CD8+ T cells, was determined by flow cytometry. The proliferative capacities of HSV-2 specific T cells were determined by pre-staining peptide exposed PBMC with CFSE. A cell division index (CDI)>2 was used as a cut-off for proliferation positivity.
Single peptides identified during this study were used to activate epitope specific CD8+ T cells. Antigen specific CD8+ T cells were identified using a gating strategy. […] The polyfunctional profiles of responding cells, with reference to the expression of IFN-γ, IL2, and TNF-α, and the mobilization of CD107a were determined.

In the case of “SMSLADFHGEEFEKL (herpes simplex virus 2)”, the “# SUBJECTS” value [1] is reported as 1.
DFIWTGNPRTAPRSL was tested, and the “# SUBJECTS” value [1] was 2.
“ARPRRSASVAGSHGPG (herpes simplex virus 2)” was tested, and the “# SUBJECTS” value [1] was 2 and the “CDI (cell division index)” value [2] was 1.8.
“RLGPADRRFVALSGS (herpes simplex virus 2)” was tested, and the “# SUBJECTS” value [1] was 3.
For HNLFLWEDQTLLRAT, the “antigenicity for persons with HLA A*0201, A*0202 or other HLA-A2 subtypes” value [1] was “repeatedly and strongly positive” and the “# SUBJECTS” value [1] was 5.
In the case of “KTSNALCVRGARPFS (herpes simplex virus 2)”, the “# SUBJECTS” value [1] is reported as 1.
For “LMLEYFCRCAREESK (herpes simplex virus 2)”, the “# SUBJECTS” value [1] was 1.
With PVGNMLFDQGTLVGA the “# SUBJECTS” value [1] was 1.
For GHIGAYVVLVDQTGN, the “# SUBJECTS” value [1] was 1.
In the case of “AQREAAGVYDAVRTW (herpes simplex virus 2)”, the “# SUBJECTS” value [1] is reported as 2.
PMRARPRGEVRFLHY was tested, and the “# SUBJECTS” value [1] was 6, the “response in Elispot and ICS assays” value ([1]; one individual with four HLA-B07 restricted epitopes within UL49, versus other UL49 epitopes) was “largest detectable response” and the “CD107a positive cells among responding cells” value [3] was “less CD107a positive cells relative to IFN-γ+ cells”. The “cytokine levels in responding cells” value [3] was “higher levels of IFN-γ”, the “monofunctional cells among responding cells” value [3] was “less monofunctional cells” and the “CDI (cell division index)” value [2] was 8.7.
With RAAAPAWSRRTLLPE the “# SUBJECTS” value [1] was 3.
CPLLIFDRTRKFVLA was tested, and the “# SUBJECTS” value [1] was 1.
In the case of “9 mer: 9 amino acid minimal epitope at amino acids 372-380 of HSV-2 UL25 (FLWEDQTLL; herpes simplex virus 2)”, the “antigenicity for persons with HLA A*0201, A*0202 or other HLA-A2 subtypes” value [1] is reported as “repeatedly and strongly positive”.
“HGPGPARAPPPPGGPV (herpes simplex virus 2)” was tested, and the “# SUBJECTS” value [1] was 1 and the “CDI (cell division index)” value [2] was 1.4.
With “PKASATPATDPARGR (herpes simplex virus 2)” the “# SUBJECTS” value [1] was 1 and the “CDI (cell division index)” value [2] was 1.6.
For EAGLMDAATPPARPPA, the “# SUBJECTS” value [1] was 1.
For “DRLDNRLQLGMLIPG (herpes simplex virus 2)”, the “# SUBJECTS” value [1] was 1.
For LPIAGVSSVVALAPY, the “# SUBJECTS” value [1] was 1.
“FGGHYMESVFQMYTR (herpes simplex virus 2)” was tested, and the “# SUBJECTS” value [1] was 1.
For “AFEDRSYPAVFYLLQ (herpes simplex virus 2)”, the “# SUBJECTS” value [1] was 1.
With LHPFCIPCMKTWIPL the “# SUBJECTS” value [1] was 1.
With “KNLLORANELVNPDA: 15-mer epitope, amino acids 249-263 of HSV-2 UL49” the “# SUBJECTS” value [1] was 1.
DMETGHIGAYVVLVD was tested, and the “# SUBJECTS” value [1] was 1.
With “GVLVHLRIRTREASF (herpes simplex virus 2)” the “# SUBJECTS” value [1] was 1.
